Patent US10647737B2, “Sulfated-glycolipids as adjuvants for vaccines” (National Research Council of Canada, priority 2014, dated 2020)
Values joined by “and” are separate entries in the source; they are usually repeats but may differ in a detail not shown here. Equal values may be shown once. Blank lines part the entries; values can stand above or below the compound they belong to.

Tests used:
[1] = Archaeosome formation by hydration of dried lipid; format: physicochemical; conditions: lipid hydrated in PBS with antigen
Procedure: (§1) In one method, archaeosomes were formed by hydrating 20-30 mg dried lipid at 40° C. in 2 ml PBS buffer (10 mM sodium phosphate, 160 mM NaCl, pH 7.1) with the protein antigen OVA dissolved at 10 mg/ml. Vesicle size was reduced to about 100-150 nm diameter by brief sonication in a sonic bath (Fisher Scientific), and the portion of OVA antigen not entrapped was removed by centrifugation from 7 ml PBS followed by 2 washes (200,000×g max for 30 min). Vesicle pellets were resuspended in 2-2.5 ml PBS and filter sterilized through 0.45 μm Millipore filters. Sterile conditions and pyrogen-free water was used throughout.
In another method, lipids dissolved in t-butanol/water received antigen dissolved in an equal volume of water. The sample was then lyophilized to a powder and rehydrated in PBS buffer. Size was reduced, antigen not entrapped was removed, and filtration conducted as above.

anti OVA antibody (IgG) = assay: Anti-OVA antibody titre in sera of immunized mice (Elisa); format: in vivo; conditions: OVA-archaeosomes, immunized day 0 and 21; FIG. 13
Procedure: (§2) C57BL6 female mice ([…]) were immunized subcutaneously with 0.1 ml vaccines containing the equivalent of 20 μg OVA, often entrapped in archaeosomes of various compositions, A booster consisting of the same vaccine and route was given most often on week 3. In experiments addressing ability of archaeosomes to evoke immune response to a cancer self-antigen, TRP or Gp100 antigen in archaeosomes was administered at a dose of 15 μg antigen per injection and booster given on week 3.5 and week 8.5. In some experiments an additional third injection was given (˜95 days after first dose). All protocols and SOPs were approved by the NRC Animal Care Committee and conducted within the guidelines of the Canadian Council on Animal Care.
(§3) As a measure of CD4^+ T cell response, antibody raised to the antigen in the vaccine and present in the sera of mice (5-6 mice/group), was quantified by Elisa according to a previous description (Krishnan, L., Dicaire, C. J., Patel, G. B., and Sprott, G. D. 2000. Infect, Immun. 68:54-63). The CD8^+ T cell response was quantified by sacrificing 2 mice/group and pooling their splenic cells. These were assayed in triplicate for antigen-specific responses by Elispot and CTL methods (Krishnan, L., Sad, S., Patel, G. B., and Sprott, G. D. 2003. Cancer Res. 63:2526-2534).

[2] = Antigen loading of archaeosomes (SDS PAGE / SDS Lowry); format: physicochemical; conditions: OVA antigen entrapped in archaeosomes
Procedure: as §1
In another method, lipids dissolved in t-butanol/water received antigen dissolved in an equal volume of water. The sample was then lyophilized to a powder and rehydrated in PBS buffer. […]
Quantification of antigen loading was conducted by separating protein(s) from lipids using SDS polyacrylamide gel electrophoresis as described (Sprott, G. D., Patel, G. B., and Krishnan, L. 2003. Methods Enzymol, 373:155-172). Loading of synthetic archaeosomes with antigens was also determined using SDS Lowry with standard curves prepared for the respective antigen. […] Average diameters based on Intensity and Zeta potentials were measured using a Malvern Nano Zetasizer with a He/Ne laser (Spectra Research Corp., Ontario, Canada).

CD8^+ T cell response = assay: Elispot of IFN-γ-secreting splenic cells of mice immunized with OVA-archaeosomes; format: in vivo; conditions: OVA-loaded archaeosomes s.c. at 0 and 3 weeks; 6 weeks post first injection; FIG. 2
Procedure: as §2, with “All protocols and SOPs were approved by the NRC Animal Care Committee and conducted within the guidelines of the Canadian Council on Animal Care.” left out
as §3, with “These were assayed in triplicate for antigen-specific responses by Elispot and CTL methods (Krishnan, L., Sad, S., Patel, G. B., and Sprott, G. D. 2003. Cancer Res. 63:2526-2534).” left out
In a first example, adjuvant activity of the natural sulfated glycolipid purified from Haloferax volcanii (6′-HSO3-D-Manp-α-1,2-D-Glcp-α-1,1-archaeol) was compared to a synthetic 6′-S-lactosylarchaeol, not found in nature. […] CD8^+ T cell responses measured by Elispot splenic cell assays. […]

EL-4+TRP target cells = assay: CD8+ T cell response (ELISPOT, CTL) to cancer self-antigen TRP / Gp100 delivered in archaeosomes; format: in vivo, mice; conditions: TRP-liposomes; 15.5 weeks; FIG. 12
Procedure: as §2, with “All protocols and SOPs were approved by the NRC Animal Care Committee and conducted within the guidelines of the Canadian Council on Animal Care.” left out
as §3, with “These were assayed in triplicate for antigen-specific responses by Elispot and CTL methods (Krishnan, L., Sad, S., Patel, G. B., and Sprott, G. D. 2003. Cancer Res. 63:2526-2534).” left out
Peptides HLA.A2/H-2K^b TRP-2180-188 (SVYDFFVWL), CTL epitope from tyrosinase related protein-2 and Gp10025-35 (KVPRNQDWL) from human melanoma antigen Gp100 were synthesized. […] Quantification was done using a calibration curve based on known amounts of each of the respective peptides. […]

[3] = Average diameter of archaeosomes (Malvern Nano Zetasizer); format: physicochemical
Procedure: as §1
Quantification of antigen loading was conducted by separating protein(s) from lipids using SDS polyacrylamide gel electrophoresis as described (Sprott, G. D., Patel, G. B., and Krishnan, L. 2003. Methods Enzymol, 373:155-172). Loading of synthetic archaeosomes with antigens was also determined using SDS Lowry with standard curves prepared for the respective antigen. Loading was based on μg protein/mg salt corrected dry weight of lipid. Average diameters based on Intensity and Zeta potentials were measured using a Malvern Nano Zetasizer with a He/Ne laser (Spectra Research Corp., Ontario, Canada).

archaeosome vesicle formation / hydrating ability [1]: did not form
Compound: CC(C)CCCC(C)CCCC(C)CCCC(C)CCOCC(CO[C@@H]1O[C@H](CO[C@@H]2O[C@H](CO[C@@H]3O[C@H](CO)[C@@H](O)[C@H](O)[C@H]3O)[C@@H](O)[C@H](O)[C@H]2O)[C@@H](O)[C@H](O)[C@H]1O)OCCC(C)CCCC(C)CCCC(C)CCCC(C)C (stereo partly drawn) [Glc3A, β-Glcp-(1,6)-β-Glcp-(1,6)-β-D-Glcp-(1,1)-archaeol]

archaeosome vesicle formation / hydrating ability [1]: did not hydrate well | archaeosome vesicle formation / hydrating ability ([1]; listed as lactosylarchaeol): did not form
Compound: CC(C)CCC[C@@H](C)CCC[C@@H](C)CCC[C@@H](C)CCOC[C@@H](CO[C@@H]1O[C@H](CO)[C@@H](O[C@@H]2O[C@H](CO)[C@H](O)[C@H](O)[C@H]2O)[C@H](O)[C@H]1O)OCC[C@H](C)CCC[C@H](C)CCC[C@H](C)CCCC(C)C [LA, lactosylarchaeol]

Compound: CC(C)CCCC(C)CCCC(C)CCCC(C)CCOCC(CO[C@@H]1OC(CO)[C@@H](O[C@@H]2OC(COS(=O)(=O)[O+]=[Na])[C@H](O)[C@H](O)C2O)[C@H](O)C1O)OCCC(C)CCCC(C)CCCC(C)CCCC(C)C (stereo partly drawn) [SLA, (2R)-2,3-Bis[(3R,7R,11R)-3,7,11,15-tetramethylhexadecyloxy]propan-1-yl 4-O-(6-O-sulfo-β-D-galactopyranosyl)-β-D-glucopyranoside]
antibody response to OVA in serum (anti OVA antibody (IgG)): strong antibody response | Loading (μg antigen/mg archaeosome) [2]: 35.0 μg antigen/mg archaeosome and 22.0 μg antigen/mg archaeosome | archaeosome vesicle formation / hydrating ability [1]: excellent hydrating ability | CD8+ T cell response, frequency of IFN-γ-secreting splenic cells (Elispot) (CD8^+ T cell response): highest response | adjuvant activity and CD8+ T cell response, archaeol from H. salinarum versus H. volcanii (EL-4+TRP target cells): equally effective | Average Diameter (nm) 12 weeks ([3]; 12 weeks storage): 176 nm | Average Diameter (nm) 20 weeks ([3]; 20 weeks storage): 168 nm | Average Diameter (nm) At first injection ([3]; at first injection): 172 nm and 168 nm

Compound: CC(C)CCCC(C)CCCC(C)CCCC(C)CCOCC(CO[C@@H]1O[C@H](CO)[C@@H](O[C@@H]2O[C@H](COS(=O)(=O)O)[C@H](OS(=O)(=O)O)[C@H](O)[C@H]2O)[C@H](O)[C@H]1O)OCCC(C)CCCC(C)CCCC(C)CCCC(C)C (stereo partly drawn) [di-sulfated LA, 4′-6′-disulfate-β-D-Galp-(1,4)-β-D-Glcp-(1,1)-archaeol]
antibody response to OVA in serum (anti OVA antibody (IgG)): strong antibody response

Compound: CC(C)CCCC(C)CCCC(C)CCCC(C)CCOCC(CO[C@@H]1O[C@H](CO)[C@@H](O[C@@H]2O[C@H](CO[C@@H]3O[C@H](COS(=O)(=O)O)[C@@H](O)[C@H](O)[C@H]3O)[C@H](O)[C@H](O)[C@H]2O)[C@H](O)[C@H]1O)OCCC(C)CCCC(C)CCCC(C)CCCC(C)C (stereo partly drawn) [sulfated-trisaccharide archaeol, 6′-sulfated β-D-Glcp-(1,6)-β-D-Galp-(1,4)-β-D-Glcp-(1,1)-archaeol]
antibody response to OVA in serum (anti OVA antibody (IgG)): strong antibody response
